Assay results reported in patent US12226441B2, “Composition for inhibiting intestinal permeability, treating leaky gut related diseases and/or preventing leaky gut related diseases” (priority 2020, dated 2025).

How the values were obtained:
DSS-induced mice = test: dextran sulfate sodium salt (DSS) induced abnormal intestinal permeability animal model, serum FITC-dextran; type: in vivo, C57BL/6 male mice; conditions: positive control, 0.5% (v/v) DSS, 200 μM, 14 days, vs negative control
Experimental: The animals used in this experiment were 5-6 week old C57BL/6 male mice (purchased from the National Laboratory Animal Center).
The experiment was performed by an animal model of dextran sulfate sodium salt (DSS) induced abnormal intestinal permeability (Laroui H, Ingersoll S A, Liu H C, Baker M T, Ayyadurai S, et al. (2012) Dextran Sodium Sulfate (DSS) Induces Colitis in Mice by Forming Nano-Lipocomplexes with Medium-Chain-Length Fatty Acids in the Colon. PLOS ONE 7(3): e32084. doi:10.1371/journal.pone.0032084).
The mice were divided into an untreated group (Naive), a negative control group (vehicle: water), a positive control group (5-aminosalicylic acid (5-ASA)) and 3 experiments groups (Sample 15B (Ganoderma extract+red jujube extract+lotus seed extract+lotus seed extract (the weight ratio of the respective herbal raw materials used to obtain the respective extracts is 3:1:1:1))). The mice in the untreated group were not treated in any way. […]
The FITC-dextran content in mouse serum was measured with a multifunctional microplate spectrometer (Molecular Device, FlexStation® 3) as an indicator of intestinal permeability.

OCLN = test: real-time quantitative PCR of tight junction gene expression in rhamnolipid-induced Caco-2 cells; type: cell-based, human; conditions: positive control, 50 μM (18.6 μg/mL), rhamnolipid-induced Caco-2, vs negative control
Text: (§1) Total ribonucleic acid (total RNA) of cells was isolated by Total RNA Purification Kit (GeneMark, Taichung, Taiwan). Using Maxima First Strand cDNA Synthesis Kit (Thermo Fisher Scientific), according to the manufacturer's operating procedures, the obtained total ribonucleic acid subjected to a reverse transcription polymerase chain reaction to reverse-transcript messenger ribonucleic acid (mRNA) into cDNA. Next, the cDNA samples were subjected to a real-time quantitative polymerase chain reaction to determine the expression levels of CLDN3, OCLN and TJP1 mRNA.

CLDN3 = test: as above; type: cell-based, human; conditions: positive control, 50 μM (18.6 μg/mL), rhamnolipid-induced Caco-2, vs negative control
Text: as §1

TJP1 = test: as above; type: cell-based, human; conditions: positive control, 50 μM (18.6 μg/mL), rhamnolipid-induced Caco-2, vs negative control
Text: as §1

[1] = test system: mice with circadian disruption; test: circadian disruption (insomnia) animal model, brainwave sleep cycle parameters; type: in vivo, C57BL/6 male mice; conditions: positive control, light-dark cycle 7 hours:7 hours, 2.5 mg/kg orally, Day 4, vs negative control
Experimental: The animals used in this experiment were 8-week-old C57BL/6 male mice (purchased from the National Laboratory Animal Center).
The mice were subjected to a surgical operation to load electrodes on the skull to record brain waves. After a 7-day recovery period, the mice were reared for 2 weeks under a normal light-dark cycle of 12 hours: 12 hours, and the 24-hour brainwave changes of the mice were recorded as the basic point.
During the feeding, the mice in the negative control group were given the same amount of sterile water, mice in the positive control group were given diazepam (2.5 mg/kg orally), and mice in the experimental group were given 200 mg/kg Sample 15B.
The 24-hour brainwave changes of mice were recorded on Day 4 after the circadian disruption to analyze sleep cycle parameters of the time proportions (%) of the rapid eye movement (REM) and non-rapid eye movement (NREM), etc.

Nc1ccc(O)c(C(=O)O)c1 [5-aminosalicylic acid] was tested, and the “serum FITC-dextran concentration (intestinal permeability)” value (DSS-induced mice) was “reduce the serum FITC-dextran concentration”.

In the case of COc1ccc2cc3[n+](cc2c1OC)CCc1cc2c(cc1-3)OCO2 [berberine chloride], the “expression level of OCLN gene” value (OCLN) is reported as “significantly increase”, the “expression level of CLDN3 gene” value (CLDN3) is reported as “significantly increase” and the “expression level of TJP1 gene” value (TJP1) is reported as “significantly increase”.

In the case of CN1C(=O)CN=C(c2ccccc2)c2cc(Cl)ccc21 [diazepam], the “time proportion of the non-rapid eye movement (NREM)” value [1] is reported as “significantly increase the time proportion of the non-rapid eye movement”.
